Experimental data published in patent publication EP3046573B1, “AMYLIN ANALOGUES” (Zealand Pharma A/S, priority 2013, dated 2015).
Where two headings read alike, the source gives them in different places. Numbered stars: 1 amine (or outer) side, 2 acyl side, 3 side chain; on linkers, the order of the positions; unused ones are H or OH. Bridge positions count the residues as written; N and C are the ends. Square brackets hold non-standard residues; d marks the D form. Peptide text beside a SMILES is read from it. * marks the point of attachment. C20 diacid = O=C(O)CCCCCCCCCCCCCCCCCCC(=O)*; γGlu = O=C(O)[C@H](CCC(=O)[*:2])N[*:1]; NMeI = CC[C@H](C)[C@H](NC)C(=O)O; Sar = CNCC(=O)O

Experiments:
[1] = molecular target: T1, human calcitonin receptor (hCTR2) (Homo sapiens, UniProt P30988); experiment: hCTR2 assay: induction of cAMP (AlphaScreen cAMP Assay kit) in COS7 cells expressing hCTR2; type: cell-based
T1 construct: expressed in transfected cells
T1 sequence (P30988 25-474): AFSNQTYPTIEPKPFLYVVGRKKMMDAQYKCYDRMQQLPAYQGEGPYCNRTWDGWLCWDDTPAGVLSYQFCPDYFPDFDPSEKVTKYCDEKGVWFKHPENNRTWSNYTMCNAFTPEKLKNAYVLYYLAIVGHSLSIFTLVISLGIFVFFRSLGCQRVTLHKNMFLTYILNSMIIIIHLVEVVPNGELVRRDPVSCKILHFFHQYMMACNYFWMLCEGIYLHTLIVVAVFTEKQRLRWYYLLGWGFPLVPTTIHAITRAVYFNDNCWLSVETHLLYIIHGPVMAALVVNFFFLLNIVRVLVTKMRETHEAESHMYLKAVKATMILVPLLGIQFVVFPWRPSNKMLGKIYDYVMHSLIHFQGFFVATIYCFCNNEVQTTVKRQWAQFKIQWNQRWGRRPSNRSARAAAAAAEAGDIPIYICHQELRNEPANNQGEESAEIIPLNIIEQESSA
Method in brief: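 COS7 stable hCTR2 clone (RAMP-free); peptide dose-response 15 min 37° C in Tyrode pH 7.4 + 100 µM IBMX + 0.1% casein; lysis 10 min RT; AlphaScreen cAMP; 4PL fit.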

[2] = Solubility assessment (turbidity absorbance at 325 nm); type: physicochemical; conditions: stock 2 mg/ml diluted 1:1, ambient temperature (typically 25°C), n=1; for Solubility, Acetate buffer pH 4: 100 mM acetate buffer pH 4.0; for Solubility, Acetate buffer pH 5: 100 mM acetate buffer pH 5.0; for Solubility, Histidine buffer pH 6: 100 mM histidine buffer pH 6.0; for Solubility, Histidine buffer pH 7: 100 mM histidine buffer pH 7.0; for Solubility, Phosphate buffer pH 6: 100 mM phosphate buffer pH 6.0; for Solubility, Phosphate buffer pH 7: 100 mM phosphate buffer pH 7.0; for Solubility, Phosphate buffer pH 7.5: 100 mM phosphate buffer pH7.5
Method in brief: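 Stock 2 mg/ml peptide, H2O/HCl pH 2.5; 1:1 into 100 mM buffers: acetate pH 4.0/5.0, His pH 6.0/7.0, phosphate pH 6.0/7.0/7.5. A280 + A325, ~25°C, n=1. Soluble ≥ 1 mg/ml if A325 ≤ 0.02.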

[3] = cAMP induction in COS7 cells expressing hCTR2, average of a minimum of 3 determinations, read-out: hCTR2 EC50

| EC50 [1, 3] | Solubility, Acetate buffer pH 4 [2] | Solubility, Acetate buffer pH 5 [2] | Solubility, Histidine buffer pH 6 [2] | Solubility, Histidine buffer pH 7 [2] | Solubility, Phosphate buffer pH 6 [2] | Solubility, Phosphate buffer pH 7 [2] | Solubility, Phosphate buffer pH 7.5 [2] | Compound | EC50 [1] |
| --- | --- | --- | --- | --- | --- | --- | --- | --- | --- |
| 0.38 nM | SS (SS indicates solubility ≥ 1mg/ml) | SS (SS indicates solubility ≥ 1mg/ml) | SS (SS indicates solubility ≥ 1mg/ml) | SS (SS indicates solubility ≥ 1mg/ml) | SS (SS indicates solubility ≥ 1mg/ml) | SS (SS indicates solubility ≥ 1mg/ml) | SS (SS indicates solubility ≥ 1mg/ml) | CC[C@H](C)[C@@H](C(=O)N[C@@H](CC(C)C)C(=O)N[C@@H](CO)C(=O)N[C@@H](CO)C(=O)N[C@H](C(=O)N[C@@H](CC(N)=O)C(=O)N[C@H](C(=O)NCC(=O)N[C@@H](CO)C(=O)N[C@@H](CC(N)=O)C(=O)N[C@H](C(=O)N1CCC[C@H]1C(N)=O)[C@@H](C)O)C(C)C)[C@@H](C)O)N(C)C(=O)CN(C)C(=O)[C@H](Cc1ccccc1)NC(=O)[C@H](CC(N)=O)NC(=O)[C@H](CC(N)=O)NC(=O)[C@H](CO)NC(=O)[C@H](CO)NC(=O)[C@H](Cc1c[nH]cn1)NC(=O)[C@H](CC(C)C)NC(=O)[C@H](Cc1ccccc1)NC(=O)[C@H](CCC(=O)O)NC(=O)[C@H](C)NC(=O)[C@H](CC(C)C)NC(=O)[C@H](CCCNC(=N)N)NC(=O)[C@H](CCC(N)=O)NC(=O)[C@@H](NC(=O)[C@H](C)NC(=O)[C@@H]1CSSC[C@H](NC(=O)[C@H](CCCNC(=N)N)NC(=O)CC[C@H](NC(=O)CCCCCCCCCCCCCCCCCCC(=O)O)C(=O)O)C(=O)N[C@@H](CC(N)=O)C(=O)N[C@@H]([C@@H](C)O)C(=O)N[C@@H](C)C(=O)N[C@@H]([C@@H](C)O)C(=O)N1)[C@@H](C)O [Compound 40, [19CD]-isoGlu-RC()NTATC()ATQRLAEFLHSSNNF-Gly(Me)-Ile(Me)-LSSTNVGSNTP-NH2] ({C20 diacid-γGlu}-RCNTATCATQRLAEFLHSSNNF[Sar][NMeI]LSSTNVGSNTP-NH2; disulfide 2-7) |  |
| 0.12 nM | SS (SS indicates solubility ≥ 1mg/ml) | SS (SS indicates solubility ≥ 1mg/ml) | SS (SS indicates solubility ≥ 1mg/ml) | SS (SS indicates solubility ≥ 1mg/ml) | SS (SS indicates solubility ≥ 1mg/ml) | SS (SS indicates solubility ≥ 1mg/ml) | SS (SS indicates solubility ≥ 1mg/ml) | CC[C@H](C)[C@@H](C(=O)N[C@@H](CC(C)C)C(=O)N[C@@H](CO)C(=O)N[C@@H](CO)C(=O)N[C@H](C(=O)N[C@@H](CC(N)=O)C(=O)N[C@H](C(=O)NCC(=O)N[C@@H](CO)C(=O)N[C@@H](CC(N)=O)C(=O)N[C@H](C(=O)N1CCC[C@H]1C(N)=O)[C@@H](C)O)C(C)C)[C@@H](C)O)N(C)C(=O)CN(C)C(=O)[C@H](Cc1ccccc1)NC(=O)[C@H](CC(N)=O)NC(=O)[C@H](CC(N)=O)NC(=O)[C@H](CO)NC(=O)[C@H](CO)NC(=O)[C@H](CC(C)C)NC(=O)[C@H](Cc1ccccc1)NC(=O)[C@H](CCC(=O)O)NC(=O)[C@H](C)NC(=O)[C@H](CC(C)C)NC(=O)[C@H](CCCNC(=N)N)NC(=O)[C@H](CCC(N)=O)NC(=O)[C@@H](NC(=O)[C@H](C)NC(=O)[C@@H]1CSSC[C@H](NC(=O)[C@H](CCCNC(=N)N)NC(=O)CC[C@H](NC(=O)CCCCCCCCCCCCCCCCCCC(=O)O)C(=O)O)C(=O)N[C@@H](CC(N)=O)C(=O)N[C@@H]([C@@H](C)O)C(=O)N[C@@H](C)C(=O)N[C@@H]([C@@H](C)O)C(=O)N1)[C@@H](C)O [Compound 42, [19CD]-isoGlu-RC()NTATC()ATQRLAEFLSSNNF-Gly(Me)-Ile(Me)-LSSTNVGSNTP-NH2] ({C20 diacid-γGlu}-RCNTATCATQRLAEFLSSNNF[Sar][NMeI]LSSTNVGSNTP-NH2; disulfide 2-7) |  |
| 0.15 nM | SS (SS indicates solubility ≥ 1mg/ml) | II (II indicates solubility ≤ 1 mg/ml) | II (II indicates solubility ≤ 1 mg/ml) | SS (SS indicates solubility ≥ 1mg/ml) | SS (SS indicates solubility ≥ 1mg/ml) | SS (SS indicates solubility ≥ 1mg/ml) | SS (SS indicates solubility ≥ 1mg/ml) | CC[C@H](C)[C@@H](C(=O)N[C@@H](CC(C)C)C(=O)N[C@@H](CO)C(=O)N[C@@H](CO)C(=O)N[C@H](C(=O)N[C@@H](CC(N)=O)C(=O)N[C@H](C(=O)NCC(=O)N[C@@H](CO)C(=O)N[C@@H](CC(N)=O)C(=O)N[C@H](C(=O)N1CCC[C@H]1C(N)=O)[C@@H](C)O)C(C)C)[C@@H](C)O)N(C)C(=O)[C@H](C)NC(=O)CN(C)C(=O)[C@H](Cc1ccccc1)NC(=O)[C@H](CC(N)=O)NC(=O)[C@H](CO)NC(=O)[C@H](CO)NC(=O)[C@H](Cc1c[nH]cn1)NC(=O)[C@H](Cc1c[nH]cn1)NC(=O)[C@H](CC(C)C)NC(=O)[C@H](Cc1ccccc1)NC(=O)[C@H](CCC(=O)O)NC(=O)[C@H](C)NC(=O)[C@H](CC(C)C)NC(=O)[C@H](CCCNC(=N)N)NC(=O)[C@H](CCC(N)=O)NC(=O)[C@@H](NC(=O)[C@H](C)NC(=O)[C@@H]1CSSC[C@H](NC(=O)[C@H](CCCNC(=N)N)NC(=O)CC[C@H](NC(=O)CCCCCCCCCCCCCCCCCCC(=O)O)C(=O)O)C(=O)N[C@@H](CC(N)=O)C(=O)N[C@@H]([C@@H](C)O)C(=O)N[C@@H](C)C(=O)N[C@@H]([C@@H](C)O)C(=O)N1)[C@@H](C)O [Compound 44, [19CD]-isoGlu-RC()NTATC()ATQRLAEFLHHSSNF-Gly(Me)-A-Ile(Me)-LSSTNVGSNTP-NH2] ({C20 diacid-γGlu}-RCNTATCATQRLAEFLHHSSNF[Sar]A[NMeI]LSSTNVGSNTP-NH2; disulfide 2-7) |  |

| Compound | EC50 [1, 3] | Solubility, Acetate buffer pH 4 [2] | Solubility, Acetate buffer pH 5 [2] | Solubility, Histidine buffer pH 6 [2] | Solubility, Histidine buffer pH 7 [2] | Solubility, Phosphate buffer pH 6 [2] | Solubility, Phosphate buffer pH 7 [2] | Solubility, Phosphate buffer pH 7.5 [2] | EC50 [1] |
| --- | --- | --- | --- | --- | --- | --- | --- | --- | --- |
| CC[C@H](C)[C@@H](C(=O)N[C@@H](CC(C)C)C(=O)N[C@@H](CO)C(=O)N[C@@H](CO)C(=O)N[C@H](C(=O)N[C@@H](CC(N)=O)C(=O)N[C@H](C(=O)NCC(=O)N[C@@H](CO)C(=O)N[C@@H](CC(N)=O)C(=O)N[C@H](C(=O)N1CCC[C@H]1C(N)=O)[C@@H](C)O)C(C)C)[C@@H](C)O)N(C)C(=O)[C@H](C)NC(=O)CN(C)C(=O)[C@H](Cc1ccccc1)NC(=O)[C@H](CC(N)=O)NC(=O)[C@H](CC(N)=O)NC(=O)[C@H](CO)NC(=O)[C@H](CO)NC(=O)[C@H](CC(C)C)NC(=O)[C@H](Cc1ccccc1)NC(=O)[C@H](CCC(=O)O)NC(=O)[C@H](C)NC(=O)[C@H](CC(C)C)NC(=O)[C@H](CCCNC(=N)N)NC(=O)[C@H](CCC(N)=O)NC(=O)[C@@H](NC(=O)[C@H](C)NC(=O)[C@@H]1CSSC[C@H](NC(=O)[C@H](CCCNC(=N)N)NC(=O)CC[C@H](NC(=O)CCCCCCCCCCCCCCCCCCC(=O)O)C(=O)O)C(=O)N[C@@H](CC(N)=O)C(=O)N[C@@H]([C@@H](C)O)C(=O)N[C@@H](C)C(=O)N[C@@H]([C@@H](C)O)C(=O)N1)[C@@H](C)O [Compound 41, [19CD]-isoGlu-RC()NTATC()ATQRLAEFLSSNNF-Gly(Me)-A-Ile(Me)-LSSTNVGSNTP-NH2] ({C20 diacid-γGlu}-RCNTATCATQRLAEFLSSNNF[Sar]A[NMeI]LSSTNVGSNTP-NH2; disulfide 2-7) |  | SS (SS indicates solubility ≥ 1mg/ml) | SS (SS indicates solubility ≥ 1mg/ml) | SS (SS indicates solubility ≥ 1mg/ml) | SS (SS indicates solubility ≥ 1mg/ml) | SS (SS indicates solubility ≥ 1mg/ml) | SS (SS indicates solubility ≥ 1mg/ml) | SS (SS indicates solubility ≥ 1mg/ml) | 0.071 nM |
